Assay results as given in patent US6605308B2, “Pathogen management system” (Tomoco2 Equipment Company, priority 2001, dated 2003).
Where two headings read alike, the source gives them in different places.

Key:
Salmonella = Salmonella in chiller water, plant test at Springdale, Ark.
E-Coli [1] = test: E-Coli testing at immersion chiller, plant test at Dallas, Tex.
APC = APC on carcass after IOBW, Natchitoches, La.; conditions: standard nozzles, 13 seconds of wash time
Coliform = Coliform on carcass after IOBW, Natchitoches, La.; conditions: standard nozzles, 13 seconds of wash time
E-Coli [2] = test: E-Coli on carcass after IOBW, Natchitoches, La.; conditions: standard nozzles, 13 seconds of wash time
Procedure: More tests are being conducted at a facility in Natchitoches, La. The project began by adding hypochlorous acid to the IOBW on-line. Tests were performed on the carcass before and after the IOBW. APC, Coliform and E-Coli test were run on the carcass. Average APC of the carcass entering the IOBW was 90,559 cfu/ml, Coliform of 2,103 cfu/ml and E-Coli of 1,429 cfu/ml. After adding hypochlorous acid to the existing IOBW, using standard nozzles, a major reduction in the numbers was found. The average APC was 12,792, Coliform 664 cfu/ml and E. coli 383 cfu/ml. This was only with 13 seconds of wash time.

E-Coli [3] = test: E-Coli testing at chiller system, Natchitoches, La.
pathogens = test: Initial one-control-point testing at the immersion chillers, chiller water samples
Text: In a preferred embodiment, a hypochlorous acid stream is used in more than one discrete location along a poultry processing line, although preliminary investigations for pathogens began as a one-control point approach in the process at the immersion chillers.
Samples of chiller water determined that it was sterilized with hypochlorous acid. It appeared that the disinfecting capabilities were maximized at the chiller.

[4] = cited from earlier work
microorganisms = conditions: versus OCl-; cited from earlier work
Listeria monocytogenes = conditions: 8% TSP, 10 minutes, room temperature, colony grown on a surface with biofilm; cited from earlier work
[5] = December, 121 samples so far, chiller plus pick/kill room system
[6] = July, 254 samples, system on chiller
[7] = November, 251 samples, chiller plus pick/kill room system

[Ca+2].[O-]Cl.[O-]Cl [calcium hypochlorite solution, calcium hypochlorite]
reduction in Salmonella (Salmonella): 40% | samples returned with a positive result of Salmonella (Salmonella; of 83 samples, four weeks, injected into chiller recirculation lines without pH control): 16 samples

OCl [hypochlorous acid]
samples returned positive (Salmonella) (Salmonella; of 41 samples over three weeks, 98% hypochlorous acid solution injected into chiller recirculation lines): 2 samples | E-Coli detection rate (E-Coli [1]; April): 14% | samples below 100 cfu/ml (E-Coli [1]; April): 99% | samples with E-Coli detected (E-Coli [1]; April, of 264 samples): 37 samples | E-Coli detection rate (E-Coli [1]; March): 28% | samples below 100 cfu/ml (E-Coli [1]; March): 83% | samples with E-Coli detected (E-Coli [1]; March, of 264 samples): 76 samples | E-Coli detection rate (E-Coli [1]; May): 8% | samples below 100 cfu/ml (E-Coli [1]; May): 100% | samples with E-Coli detected (E-Coli [1]; May, of 276 samples): 23 samples | average APC (APC): 12,792 cfu/ml | average Coliform (Coliform): 664 cfu/ml | average E. coli (E-Coli [2]): 383 cfu/ml | samples over 10 cfu/ml (E-Coli [3]; [5]): 28% | samples over 100 cfu/ml (number) (E-Coli [3]; [5]): two | samples over 10 cfu/ml (E-Coli [3]; [6]): 38% | samples over 100 cfu/ml (E-Coli [3]; [6]): 5% | samples over 10 cfu/ml (E-Coli [3]; [7]): 20% | samples over 100 cfu/ml (number) (E-Coli [3]; [7]): one | state of chiller water samples (pathogens): sterilized | Percent HOCl ([4]; pH 5.0, 0 °C): 99.85% | Percent HOCl ([4]; pH 5.0, 5 °C): 99.83% | Percent HOCl ([4]; pH 5.0, 10 °C): 99.80% | Percent HOCl ([4]; pH 5.0, 15 °C): 99.77% | Percent HOCl ([4]; pH 5.0, 20 °C): 99.74% | Percent HOCl ([4]; pH 5.0, 25 °C): 99.71% | Percent HOCl ([4]; pH 5.0, 30 °C): 99.68% | Percent HOCl ([4]; pH 5.5, 0 °C): 99.53% | Percent HOCl ([4]; pH 5.5, 5 °C): 99.75% | Percent HOCl ([4]; pH 5.5, 10 °C): 99.36% | Percent HOCl ([4]; pH 5.5, 15 °C): 99.27% | Percent HOCl ([4]; pH 5.5, 20 °C): 99.18% | Percent HOCl ([4]; pH 5.5, 25 °C): 99.09% | Percent HOCl ([4]; pH 5.5, 30 °C): 99.01% | Percent HOCl ([4]; pH 6.0, 0 °C): 98.53% | Percent HOCl ([4]; pH 6.0, 5 °C): 98.28% | Percent HOCl ([4]; pH 6.0, 10 °C): 98.01% | Percent HOCl ([4]; pH 6.0, 15 °C): 97.73% | Percent HOCl ([4]; pH 6.0, 20 °C): 97.45% | Percent HOCl ([4]; pH 6.0, 25 °C): 97.18% | Percent HOCl ([4]; pH 6.0, 30 °C): 96.92% | Percent HOCl ([4]; pH 7.0, 0 °C): 87.05% | Percent HOCl ([4]; pH 7.0, 5 °C): 85.08% | Percent HOCl ([4]; pH 7.0, 10 °C): 83.11% | Percent HOCl ([4]; pH 7.0, 15 °C): 81.17% | Percent HOCl ([4]; pH 7.0, 20 °C): 79.23% | Percent HOCl ([4]; pH 7.0, 25 °C): 77.53% | Percent HOCl ([4]; pH 7.0, 30 °C): 75.90% | Percent HOCl ([4]; pH 8.0, 0 °C): 40.19% | Percent HOCl ([4]; pH 8.0, 5 °C): 36.32% | Percent HOCl ([4]; pH 8.0, 10 °C): 32.98% | Percent HOCl ([4]; pH 8.0, 15 °C): 30.12% | Percent HOCl ([4]; pH 8.0, 20 °C): 27.62% | Percent HOCl ([4]; pH 8.0, 25 °C): 25.65% | Percent HOCl ([4]; pH 8.0, 30 °C): 23.95% | Percent HOCl ([4]; pH 9.0, 0 °C): 6.30% | Percent HOCl ([4]; pH 9.0, 5 °C): 5.40% | Percent HOCl ([4]; pH 9.0, 10 °C): 4.69% | Percent HOCl ([4]; pH 9.0, 15 °C): 4.13% | Percent HOCl ([4]; pH 9.0, 20 °C): 3.68% | Percent HOCl ([4]; pH 9.0, 25 °C): 3.34% | Percent HOCl ([4]; pH 9.0, 30 °C): 3.05% | Percent HOCl ([4]; pH 10.0, 0 °C): 0.67% | Percent HOCl ([4]; pH 10.0, 5 °C): 0.57% | Percent HOCl ([4]; pH 10.0, 10 °C): 0.49% | Percent HOCl ([4]; pH 10.0, 15 °C): 0.43% | Percent HOCl ([4]; pH 10.0, 20 °C): 0.38% | Percent HOCl ([4]; pH 10.0, 25 °C): 0.34% | Percent HOCl ([4]; pH 10.0, 30 °C): 0.31% | Percent HOCl ([4]; pH 11.0, 0 °C): 0.067% | Percent HOCl ([4]; pH 11.0, 5 °C): 0.057% | Percent HOCl ([4]; pH 11.0, 10 °C): 0.049% | Percent HOCl ([4]; pH 11.0, 15 °C): 0.043% | Percent HOCl ([4]; pH 11.0, 20 °C): 0.038% | Percent HOCl ([4]; pH 11.0, 25 °C): 0.034% | Percent HOCl ([4]; pH 11.0, 30 °C): 0.031% | effectiveness for killing microorganisms relative to OCl- (microorganisms): about 80 times

O=P([O-])([O-])[O-].[Na+].[Na+].[Na+] [TSP, Trisodium phosphate]
reduction of bacterial numbers (Listeria monocytogenes): 1 log10
